# According to article PMC12668308, “A Novel Antimalarial Agent that Inhibits Protein Synthesis in Plasmodium falciparum” (Angewandte Chemie (International Ed. in English), 2025):
# System: P. falciparum NF54 strain
# Test: [3H]-hypoxanthine incorporation assay, asexual blood stage
# Type: cell-based, Plasmodium falciparum
# Settings: for IC50: Plasmodium falciparum, NF54, asexual blood stage, mean ± s.d., read-out: PfNF54 IC50 ± s.d.
# Description: P. falciparum asexual blood stage parasites were cultured in human red blood cells (RBC, Blutspende SRK, Zurich) at a hematocrit of 5% in RPMI 1640 medium. The RPMI 1640 medium (ThermoFisher Scientific #51800−043) was supplemented with the following: 24 mM NaHCO3 (pH 7.3, Sigma-Aldrich #31437−500G-R), 25 mM Hepes (Sigma-Aldrich #H4034−500G), 0.36 mM hypoxanthine (Sigma-Aldrich # H9377−25G), 100 µg mL^-1 neomycin (Sigma-Aldrich #N6386−100G) and 0.5% Albumax II (Thermo Fisher #11021−045). Additionally, 2 mM choline chloride (279 mg/L, Sigma-Aldrich #C7527−100G) was added to the culture to block the induction of sexual commitment as described. ^[31^] The RPMI 1640 medium and components were dissolved in water (Milli-Q purified), stirred for at least 3 h, and then sterile filtered (0.22 μm pore size) with a bottle top filter (Corning # 431118). Parasite cultures were maintained in an atmosphere of 3% O2, 4% CO2, and 93% N2 in air-tight chambers at 37 °C. The [^3H]-hypoxanthine incorporation assay was used to test compound activity in the specific parasite lines as described.^[32^] Briefly, compounds were dissolved in DMSO (10 mM) and diluted in a hypoxanthine-free culture medium. A limiting dilution was performed over a 64-fold range (6-step twofold dilution) in a 96-well plate in duplicates. For every starting concentration, a limiting dilution was performed over a 64-fold range (6-step twofold dilution) in a 96-well plate in two biological duplicates. Parasites were added at 100 µL to each well containing the compound to obtain a final parasitemia of 0.3% and haematocrit of 1.25%. The plates were incubated for 48 h before 0.25 µCi of [^3H]-hypoxanthine was added per well for an additional 24 h. Parasites were harvested on a glass-fiber filter with a Microbeta FilterMate cell harvester (Perkin Elmer, Waltham, USA) and radioactivity was counted using a MicroBeta2 liquid scintillation counter (Perkin Elmer, Waltham, US). […] The fifty percent inhibitory concentration (IC50) was calculated by using nonlinear, four parameter (variable slope) curve fitting as described ^[33^] after importing into GraphPad Prism (version 8.3.0).
IC50 [nM],SMILES,fold increased activity compared to the initial hit molecule 1 (PfNF54 IC50)
> 10000,"COc1ccc(S(=O)(=O)N2CCCC2)cc1NC(=O)c1cccc(Oc2ccccc2)c1 [Compound 2, N-(2-Methoxy-5-(pyrrolidin-1-ylsulfonyl)phenyl)-3-phenoxybenzamide]",
69,"O=C(Nc1cc(S(=O)(=O)N2CCCC2)ccc1O)c1cccc(Oc2cc(C(F)(F)F)ccn2)c1 [Compound 23, N-(2-Hydroxy-5-(pyrrolidin-1-ylsulfonyl)phenyl)-3-((4-(trifluoromethyl)pyridin-2-yl)oxy)benzamide]",about 8 fold
361 ± 83,"O=C(Nc1cc(S(=O)(=O)N2CCCC2)ccc1O)c1cccc(Oc2cccc(F)c2)c1 [Compound 16, 3-(3-Fluorophenoxy)-N-(2-hydroxy-5-(pyrrolidin-1-ylsulfonyl)phenyl)benzamide]",
> 10000,"CN(C(=O)c1cccc(Oc2ccccc2)c1)c1cc(S(=O)(=O)N2CCCC2)ccc1O [Compound 4, N-(2-Hydroxy-5-(pyrrolidin-1-ylsulfonyl)phenyl)-N-methyl-3-phenoxybenzamide]",
2315 ± 8.5,"O=C(Nc1cc(S(=O)(=O)N2CCCC2)ccc1O)c1cccc(Oc2ccc(Cl)c(C(F)(F)F)c2)c1 [Compound 17, 3-(4-Chloro-3-(trifluoromethyl)phenoxy)-N-(2-hydroxy-5-(pyrrolidin-1-ylsulfonyl)phenyl)benzamide]",
> 10000,"O=C(Nc1cc(S(=O)(=O)N2CCCC2)ccc1O)c1cccc(Oc2cccc(C(F)(F)F)n2)c1 [Compound 21, N-(2-Hydroxy-5-(pyrrolidin-1-ylsulfonyl)phenyl)-3-((6-(trifluoromethyl)pyridin-2-yl)oxy)benzamide]",
21 ± 1.13,"Oc1ccc(CN2CCOCC2)cc1-n1cc(-c2cccc(Oc3cc(C(F)(F)F)ccn3)c2)nn1 [Compound 37, 4-(Morpholinomethyl)-2-(4-(3-((4-(trifluoromethyl)pyridin-2-yl)oxy)phenyl)-1H-1,2,3-triazol-1-yl)phenol]",
> 10000,"O=C(Nc1cc(S(=O)(=O)NCC2CCCCC2)ccc1O)c1cccc(Oc2ccccc2)c1 [Compound 13, N-(5-(N-(Cyclohexylmethyl)sulfamoyl)-2-hydroxyphenyl)-3-phenoxybenzamide]",
539 ± 92.2,"O=C(Nc1cc(S(=O)(=O)N2CCCC2)ccc1O)c1ccc(Oc2ccccc2)cc1 [Compound 15, N-(2-Hydroxy-5-(pyrrolidin-1-ylsulfonyl)phenyl)-4-phenoxybenzamide]",
1500 ± 81.2,"Cc1ccc(C(C)C)cc1Oc1cccc(C(=O)Nc2cc(S(=O)(=O)N3CCCC3)ccc2O)c1 [Compound 18, N-(2-hydroxy-5-(pyrrolidin-1-ylsulfonyl)phenyl)-3-(5-isopropyl-2-methylphenoxy)benzamide]",
41 ± 17.2,"CCN(CC)CCCNCc1ccc(O)c(NC(=O)c2cccc(Oc3cc(C(F)(F)F)ccn3)c2)c1 [Compound 28, N-(5-(((3-(diEthylamino)propyl)amino)methyl)-2-hydroxyphenyl)-3-((4-(trifluoromethyl)pyridin-2-yl)oxy)benzamide]",
216 ± 32.3,"Cc1cc(C(F)(F)F)cc(Oc2cccc(C(=O)Nc3cc(S(=O)(=O)N4CCCC4)ccc3O)c2)n1 [Compound 22, N-(2-hydroxy-5-(pyrrolidin-1-ylsulfonyl)phenyl)-3-((6-methyl-4-(trifluoromethyl)pyridin-2-yl)oxy)benzamide]",
34 ± 4,"CC(C)c1ccc(O)c(NC(=O)c2cccc(Oc3cc(C(F)(F)F)ccn3)c2)c1 [Compound 25, N-(2-Hydroxy-5-isopropylphenyl)-3-((4-(trifluoromethyl)pyridin-2-yl)oxy)benzamide]",
217 ± 42.4,"CCS(=O)(=O)c1ccc(O)c(NC(=O)c2cccc(Oc3ccccc3)c2)c1 [Compound 7, N-(5-(Ethylsulfonyl)-2-hydroxyphenyl)-3-phenoxybenzamide]",
1450 ± 80,"O=C(Nc1cc(S(=O)(=O)N2CCCC2)ccc1O)c1cccc(Oc2ccccn2)c1 [Compound 19, N-(2-Hydroxy-5-(pyrrolidin-1-ylsulfonyl)phenyl)-3-(pyridin-2-yloxy)benzamide]",
1410 ± 147,"CC1(C)CCN(S(=O)(=O)c2ccc(O)c(NC(=O)c3cccc(Oc4ccccc4)c3)c2)C1 [Compound 10, N-(5-((3,3-diMethylpyrrolidin-1-yl)sulfonyl)-2-hydroxyphenyl)-3-phenoxybenzamide]",
1910 ± 254,"CCCCNS(=O)(=O)c1ccc(O)c(NC(=O)c2cccc(Oc3ccccc3)c2)c1 [Compound 8, N-(5-(N-Butylsulfamoyl)-2-hydroxyphenyl)-3-phenoxybenzamide]",
808 ± 172,"Oc1ccc(CN2CCOCC2)cc1NCc1cccc(Oc2cc(C(F)(F)F)ccn2)c1 [Compound 36, 4-(Morpholinomethyl)-2-((3-((4-(trifluoromethyl)pyridin-2-yl)oxy)benzyl)amino)phenol]",
2780 ± 389,"O=C(Nc1cc(S(=O)(=O)NCc2ccccc2)ccc1O)c1cccc(Oc2ccccc2)c1 [Compound 14, N-(5-(N-Benzylsulfamoyl)-2-hydroxyphenyl)-3-phenoxybenzamide]",
4930 ± 97.8,"O=C(Nc1cccc(S(=O)(=O)N2CCCC2)c1)c1cccc(Oc2ccccc2)c1 [Compound 5, 3-Phenoxy-N-(3-(pyrrolidin-1-ylsulfonyl)phenyl)benzamide]",
7.6 ± 1.8,"CN(Cc1ccc(O)c(NC(=O)c2cccc(Oc3cc(C(F)(F)F)ccn3)c2)c1)C1CCCCC1 [Compound 29, N-(5-((Cyclohexyl(methyl)amino)methyl)-2-hydroxyphenyl)-3-((4-(trifluoromethyl)pyridin-2-yl)oxy)benzamide]",
746 ± 21.3,"O=C(Nc1cc(S(=O)(=O)N2CCCC2)ccc1O)c1cccc(Oc2cccc(Cl)n2)c1 [Compound 20, 3-((6-Chloropyridin-2-yl)oxy)-N-(2-hydroxy-5-(pyrrolidin-1-ylsulfonyl)phenyl)benzamide]",
> 10000,"COc1ccc(S(=O)(=O)N2CCCC2)cc1N(C)C(=O)c1cccc(Oc2ccccc2)c1 [Compound 3, N-(2-methoxy-5-(pyrrolidin-1-ylsulfonyl)phenyl)-N-methyl-3-phenoxybenzamide]",
158 ± 15.6,"O=C(Nc1cc(-n2cnnc2)ccc1O)c1cccc(Oc2cc(C(F)(F)F)ccn2)c1 [Compound 26, N-(2-Hydroxy-5-(4H-1,2,4-triazol-4-yl)phenyl)-3-((4-(trifluoromethyl)pyridin-2-yl)oxy)benzamide]",
574 ± 66.5,"O=C(Nc1cc(S(=O)(=O)N2CCCCC2)ccc1O)c1cccc(Oc2ccccc2)c1 [Compound 9, N-(2-Hydroxy-5-(piperidin-1-ylsulfonyl)phenyl)-3-phenoxybenzamide]",
1030 ± 116,"CC1CCN(S(=O)(=O)c2ccc(O)c(NC(=O)c3cccc(Oc4ccccc4)c3)c2)CC1 [Compound 11, N-(2-Hydroxy-5-((4-methylpiperidin-1-yl)sulfonyl)phenyl)-3-phenoxybenzamide]",
197 ± 28,"O=C(Nc1cc(S(=O)(=O)N2CCOCC2)ccc1O)c1cccc(Oc2ccccc2)c1 [Compound 12, N-(2-Hydroxy-5-(morpholinosulfonyl)phenyl)-3-phenoxybenzamide]",
> 10000,"O=C(Nc1cc(CN2CCOCC2)ccn1)c1cccc(Oc2cc(C(F)(F)F)ccn2)c1 [Compound 35, N-(4-(Morpholinomethyl)pyridin-2-yl)-3-((4-(trifluoromethyl)pyridin-2-yl)oxy)benzamide]",
777 ± 86,"NS(=O)(=O)c1ccc(O)c(NC(=O)c2cccc(Oc3ccccc3)c2)c1 [Compound 6, N-(2-Hydroxy-5-sulfamoylphenyl)-3-phenoxybenzamide]",
